The values below come from patent US6410567B1, “Pesticide containing a photosensitizer and an attractant” (priority 1996, dated 2002).

Format in all cases: in vivo
The subject of one series is Ceratitis capitata. Nature of the series: Comparative studies on the photoinsecticidal activity of different sensitizing compounds (percent survival after irradiation). To be noted: for Percent survival, 0 h after 1 h irradiation / Percent survival, 1 h after 1 h irradiation / Percent survival, 24 h after 1 h irradiation: 6 μmoles/ml photosensitizer for 24 h, 1220 μE s^−1 m^−2 for 1 h; for Percent survival, 0 h after 1 h irradiation: 0 h after irradiation; for Percent survival, 1 h after 1 h irradiation: 1 h after irradiation; for Percent survival, 24 h after 1 h irradiation: 24 h after irradiation; for Percent survival, pre-irradiation: Ceratitis capitata fed 24 h with sucrose solution containing 6 μmoles/ml photosensitizer, before irradiation. Here is the method:
31. Comparative Studies on the Photosecticidal Activity of Different Sensitizing Compounds
Target: Ceratitis capitata
Light source: Sunlight-simulating halogen lamp
Light intensity (fluence rate): 1220 μE s^−1 m^−2
Groups of at least 20 flies were fed for 24 h with 3 ml of an aqueous solution containing sucrose (attractive) and 6 μmoles/ml of the photosensitizer. […]

Series [1] concerns flies. Nature of the series: Effect of the attractant buminal on the intake of HP (extraction, spectrofluorimetric analysis). The note with it: HP 8 μmol/ml offered for 6 h, in combination with buminal vs buminal-free food. As to the method:
19. Effect of the Attractant Buminal on the Intake and Action of HP
Groups of 10 flies each were fed for two days with an aqueous solution comprising sucrose and were then fed with compositions which contained the following ingredients:
1. HP (8 μmol/ml)+buminal (1 ml)
3. HP (8 μmol/ml)+1 ml sucrose (1.4 mg/ml)
4. HP (8 μmol/ml)+buminal (0.5 ml)+sucrose (0.5 ml)
The animals were able to take in the compositions indicated above for 6 hours. Thereafter the flies were subjected to an extraction in order to extract the HP taken in, which was quantified by a spectrofluorimetric analysis. From these experiments it is clearly evident that buminal is capable of sharply increasing the intake of HP by the flies, the flies taking in about four times the quantity of photosensitizer when the latter is offered in combination with buminal, in comparison to the buminal-free food. The addition of buminal therefore strengthens the action of HP.

Series [2] relates to flies. Nature of the series: Mortality investigations: control flies given only HP without irradiation. To be noted: flies fed HP in the food, no irradiation. Here is the method: An appropriate number of flies (25 for each experiment) was removed from a population and starved for 48 hours. Then, depending on the individual experimental conditions, the flies were provided with food, the control animals being fed with sugar and water while the test group received hematoporphyrin (HP; shown below) which had been added to the food. The animals were then used for the individual experiments; for example, HP was extracted or the flies were irradiated, etc.
3. Mortality Investigations
Control flies and flies fed with HP were irradiated with light sources (HQIT 400W/D OSRAM) whose emitted light is similar to sunlight. The number of survivors was plotted against the irradiation time. The HP concentration, the flux rate and the exposure time (or the total light dose) were investigated as parameters in respect of their effect on the mortality.

For the molecule `C[n+]1ccc(-c2c3nc(c(-c4cc[n+](C)cc4)c4ccc([nH]4)c(-c4cc[n+](C)cc4)c4nc(c(-c5ccccc5)c5ccc2[nH]5)C=C4)C=C3)cc1` [II, meso-tri(4N-methyl-pyridyl)-monophenyl-porphine], in the series on Ceratitis capitata, the “Percent survival, 0 h after 1 h irradiation” value (“Percent survival, 0 h” for short) is given as 10%; the “Percent survival, 1 h after 1 h irradiation” value (from here on “Percent survival, 1 h”) was 0%; the “Percent survival, 24 h after 1 h irradiation” value (from here on “Percent survival, 24 h”) was 0%; the “Percent survival, pre-irradiation” value was 100%.
For “Al(III)-phtalocyanine tetrasulphonate (sodium salt)”, in the series on Ceratitis capitata, the “Percent survival, 0 h” value was determined as 100%; the “Percent survival, 1 h” value was 95%; the “Percent survival, 24 h” value was determined as 90%; the “Percent survival, pre-irradiation” value worked out at 100%.
Consider `COc1ccc(NC(N)=S)cc1` [VI, 1-(4-methoxyphenyl)-2-thiourea], for which, in the series on Ceratitis capitata, the “Percent survival, 0 h” value was found to be 100%; the “Percent survival, 1 h” value was determined as 95%; the “Percent survival, 24 h” value was found to be 90%; the “Percent survival, pre-irradiation” value is 100%.
On to `O=C1OC2(c3cc(I)c(O)c(I)c3Oc3c2cc(I)c(O)c3I)c2c(Cl)c(Cl)c(Cl)c(Cl)c21` [IV, Rose bengal (tetrachloro, tetraiodo-fluorescein)], for which, in the series on Ceratitis capitata, the “Percent survival, 0 h” value is listed as 85%; the “Percent survival, 1 h” value came to 58%; the “Percent survival, 24 h” value is on record as 30%; the “Percent survival, pre-irradiation” value came out at 100%.
In the case of `Nc1c(S(=O)(=O)[O-])ccc2c1C(=O)c1ccccc1C2=O.[Na+]` [V, 1-amino-anthraquinone-2-sulphonate (sodium salt)], in the series with Ceratitis capitata, the “Percent survival, 0 h” value came to 100%; the “Percent survival, 1 h” value is recorded as 77%; the “Percent survival, 24 h” value is 60%; the “Percent survival, pre-irradiation” value worked out at 100%.
On to `CC1=C(CCC(=O)O)c2cc3[nH]c(cc4nc(cc5[nH]c(cc1n2)c(C)c5C(C)O)C(C)=C4C(C)O)c(C)c3CCC(=O)O` (stereo not drawn) [I, hematoporphyrin], for which, in the series with flies [1], the “Quantity of photosensitizer taken in with buminal in comparison to the buminal-free food” value is recorded as “about four”. In addition, the “Mortality or toxic effect without irradiation” value in the series on flies [2] was “In none of the experiments was mortality or a toxic effect observed”. For the same molecule, in the series with Ceratitis capitata, the “Percent survival, 0 h” value was found to be 60%; the “Percent survival, 1 h” value is reported as 25%; the “Percent survival, 24 h” value is listed as 5%; the “Percent survival, pre-irradiation” value was 100%.
In the case of `O=C([O-])c1cccc2sc3ccccc3c(=O)c12.[Na+]` [VII, thioxanthene-9-one-1-carbonate (sodium salt)], in the series on Ceratitis capitata, the “Percent survival, 0 h” value was determined as 100%; the “Percent survival, 1 h” value stood at 100%; the “Percent survival, 24 h” value turned out to be 90%; the “Percent survival, pre-irradiation” value is recorded as 100%.
